Experimental data taken from patent US20020165168A1, “USE OF SUGAR DERIVATIVES AS ANTIMICROBIAL, ANTIMYCOTIC AND/OR ANTIVIRAL ACTIVE SUBSTANCES” (priority 1995, published 2002).

Test system: Corynebacterium xerosis
Assay: action against Corynebacterium xerosis
Details: qualitative statement, no method or data given

CCCCCCCCOC1O[C@H](CO)[C@@H](O)[C@H](O)[C@H]1O (stereo partly drawn) [octylglucopyranoside]
action against Corynebacterium xerosis: very good action

CCCCCCCCCCCCO[C@@H]1O[C@H](CO)[C@@H](O)[C@H](O)[C@H]1O [β-D-dodecylglucopyranoside]
action against Corynebacterium xerosis: very good action

CCCCCCCCCO[C@@H]1O[C@H](CO)[C@@H](O)[C@H](O)[C@H]1O [β-D-nonylglucopyranoside]
action against Corynebacterium xerosis: very good action
